Laboratory results from patent US12629468B2, “Devices and methods for delivering synergistic active agents to target sites” (IRRIMAX Corporation, priority 2023, dated 2026).
Where two headings read alike, the source gives them in different places.

Tests used:
Assay type in all cases: cell-based
[1] = tested on: P. aeruginosa (ATCC 15442); experiment: Minimal bactericidal concentration by serial 2-fold dilution
Description: (§1) The minimal bactericidal concentration (MBC) of ethyl lauroyl arginate hydrochloride (LAE) was determined against S. aureus (ATCC 6538), P. aeruginosa (ATCC 15442), and E. coli (ATCC BAA 1427) by serial 2-fold dilution experiments. A solution of chlorhexidine (0.025% w/w) was used as a positive control and comparator.

[2] = tested on: S. aureus (ATCC 6538); experiment: as above
Description: as §1

[3] = tested on: E. coli (ATCC BAA 1427); experiment: as above
Description: as §1

[4] = tested on: P. aeruginosa; experiment: Chequerboard assay, FIC and synergy analysis; details: for MIC: Pseudomonas aeruginosa
Description: (§2) Chlorhexidine gluconate (CHG) and ethyl lauroyl arginate hydrochloride (LAE) were analyzed by chequerboard assay with each test organism to determine potential additive, synergistic, and antagonistic activity. The test organisms S. aureus, P. aeruginosa, and E. coli were tested at ranges of chlorhexidine gluconate (0.122-15.625 μg/mL, 1.25-160 μg/mL, and 0.125-16 μg/mL, respectively) and ethyl lauroyl arginate hydrochloride (LAE) (0.117-15 μg/mL, 0.4688-60 μg/mL, and 0.2344-30 μg/mL, respectively). FIC was calculated by the following Equation 2: […]

[5] = tested on: E. coli; experiment: Chequerboard assay, FIC and synergy analysis; details: for MIC: Escherichia coli
Description: as §2

[6] = tested on: S. aureus; experiment: Chequerboard assay, FIC and synergy analysis; details: for MIC: Staphylococcus aureus
Description: as §2

[7] = tested on: P. aeruginosa (ATCC 15442); experiment: Minimum inhibitory concentration / growth inhibition by serial 2-fold dilution; details: for Average Growth Inhibition (%): average of triplicate
Description: as §1, with “inhibitory” for “bactericidal”, “(MIC, the minimum inhibitory concentration required for 90% growth reduction)” for “(MBC)”, “hydrochloride” for “hydrochloride (LAE)”

[8] = tested on: S. aureus (ATCC 6538); experiment: as above; details: for Average Growth Inhibition (%): average of triplicate
Description: as §1, with “inhibitory” for “bactericidal”, “(MIC, the minimum inhibitory concentration required for 90% growth reduction)” for “(MBC)”, “hydrochloride” for “hydrochloride (LAE)”

[9] = tested on: E. coli (ATCC BAA 1427); experiment: as above; details: for Average Growth Inhibition (%): average of triplicate
Description: as §1, with “inhibitory” for “bactericidal”, “(MIC, the minimum inhibitory concentration required for 90% growth reduction)” for “(MBC)”, “hydrochloride” for “hydrochloride (LAE)”

[10] = 250 μg/mL (0.025% w/w), positive control
[11] = 250 μg/mL (0.025% w/w), positive control, listed as chlorhexidine
[12] = read-out: MIC of CHG in Presence of LAE
[13] = 0.46875 μg/mL, average over triplicate
[14] = 0.9375 μg/mL, average over triplicate
[15] = 1.875 μg/mL, average over triplicate
[16] = 3.75 μg/mL, average over triplicate
[17] = 7.5 μg/mL, average over triplicate
[18] = 15 μg/mL, average over triplicate
[19] = 30 μg/mL, average over triplicate
[20] = 60 μg/mL, average over triplicate
[21] = defined as having less than 500 CFU/mL, hydrochloride
[22] = inhibited greater than 90% growth

For `N=C(NCCCCCCNC(=N)NC(=N)Nc1ccc(Cl)cc1)NC(=N)Nc1ccc(Cl)cc1` [Chlorhexidine gluconate, reference compound], the CFU/mL [1, 10] was 0 CFU/mL, the “Number of Colonies” value [1, 10] was 0 and the “Number of Colonies” value [1, 11] was “no colonies”. The CFU/mL [2, 10] was 0 CFU/mL, the “Number of Colonies” value [2, 10] was 0 and the “Number of Colonies” value [2, 11] was “no colonies”. For the same compound, the CFU/mL [3, 10] was 0 CFU/mL, the “Number of Colonies” value [3, 10] was 0 and the “Number of Colonies” value [3, 11] was “no colonies”. For the same compound, the MIC ([4]; read-out: MIC of CHG Alone) was 40 mg/L, the MIC [4, 12] was 10 mg/L and the MIC ([5]; read-out: MIC of CHG Alone) was 8 mg/L. For the same compound, the MIC [5, 12] was 4 mg/L, the MIC ([6]; read-out: MIC of CHG Alone) was 1.95 mg/L and the MIC [6, 12] was 0.977 mg/L. It also gave an inhibition at 250 µg/mL ([7]; Pseudomonas aeruginosa, ATCC15442, read-out: Average Growth Inhibition (%)) of 81%, an inhibition at 250 µg/mL ([8]; Staphylococcus aureus, ATCC6538, read-out: Average Growth Inhibition (%)) of 121% and an inhibition at 250 µg/mL ([9]; Escherichia coli, BAA1427, 250 μg/mL (0.025% w/w), positive control) of 63%.

In the case of `CCCCCCCCCCCC(=O)N[C@@H](CCCN=C(N)N)C(=O)OCC.Cl` [ethyl lauroyl arginate hydrochloride], the CFU/mL ([1]; 0.46875 μg/mL) is reported as “Lawn”, the “Number of Colonies” value [1, 13] is reported as “Lawn (‘Lawn’ indicates too many colonies to accurately count (e.g., greater than 250 colonies on an agar plate))” and the CFU/mL ([1]; 0.9375 μg/mL) is reported as “Lawn”. For the same compound, the “Number of Colonies” value [1, 14] was “Lawn (‘Lawn’ indicates too many colonies to accurately count (e.g., greater than 250 colonies on an agar plate))”, the CFU/mL ([1]; 1.875 μg/mL) was “Lawn” and the “Number of Colonies” value [1, 15] was “Lawn (‘Lawn’ indicates too many colonies to accurately count (e.g., greater than 250 colonies on an agar plate))”. For the same compound, the CFU/mL ([1]; 3.75 μg/mL) was “Lawn”, the “Number of Colonies” value [1, 16] was “Lawn (‘Lawn’ indicates too many colonies to accurately count (e.g., greater than 250 colonies on an agar plate))” and the CFU/mL ([1]; 7.5 μg/mL) was “Lawn”. For the same compound, the “Number of Colonies” value [1, 17] was “Lawn (‘Lawn’ indicates too many colonies to accurately count (e.g., greater than 250 colonies on an agar plate))”, the CFU/mL ([1]; 15 μg/mL) was “Lawn” and the “Number of Colonies” value [1, 18] was “Lawn (‘Lawn’ indicates too many colonies to accurately count (e.g., greater than 250 colonies on an agar plate))”. The CFU/mL ([1]; 30 μg/mL) was 0 CFU/mL, the “Number of Colonies” value [1, 19] was 0 and the CFU/mL ([1]; 60 μg/mL) was 0 CFU/mL. The “Number of Colonies” value [1, 20] was 0, the MBC [1, 21] was 30 mg/L and the CFU/mL ([2]; 0.46875 μg/mL) was “Lawn”. For the same compound, the “Number of Colonies” value [2, 13] was “Lawn (‘Lawn’ indicates too many colonies to accurately count (e.g., greater than 250 colonies on an agar plate))”, the CFU/mL ([2]; 0.9375 μg/mL) was “Lawn” and the “Number of Colonies” value [2, 14] was “Lawn (‘Lawn’ indicates too many colonies to accurately count (e.g., greater than 250 colonies on an agar plate))”. The CFU/mL ([2]; 1.875 μg/mL) was “Lawn”, the “Number of Colonies” value [2, 15] was “Lawn (‘Lawn’ indicates too many colonies to accurately count (e.g., greater than 250 colonies on an agar plate))” and the CFU/mL ([2]; 3.75 μg/mL) was 500 CFU/mL. For the same compound, the “Number of Colonies” value [2, 16] was 5, the CFU/mL ([2]; 7.5 μg/mL) was 0 CFU/mL and the “Number of Colonies” value [2, 17] was 0. The CFU/mL ([2]; 15 μg/mL) was 0 CFU/mL, the “Number of Colonies” value [2, 18] was 0 and the CFU/mL ([2]; 30 μg/mL) was 0 CFU/mL. For the same compound, the “Number of Colonies” value [2, 19] was 0, the CFU/mL ([2]; 60 μg/mL) was 0 CFU/mL and the “Number of Colonies” value [2, 20] was 0. For the same compound, the MBC [2, 21] was 3.75 mg/L, the CFU/mL ([3]; 0.46875 μg/mL) was “Lawn” and the “Number of Colonies” value [3, 13] was “Lawn (‘Lawn’ indicates too many colonies to accurately count (e.g., greater than 250 colonies on an agar plate))”. For the same compound, the CFU/mL ([3]; 0.9375 μg/mL) was “Lawn”, the “Number of Colonies” value [3, 14] was “Lawn (‘Lawn’ indicates too many colonies to accurately count (e.g., greater than 250 colonies on an agar plate))” and the CFU/mL ([3]; 1.875 μg/mL) was “Lawn”. For the same compound, the “Number of Colonies” value [3, 15] was “Lawn (‘Lawn’ indicates too many colonies to accurately count (e.g., greater than 250 colonies on an agar plate))”, the CFU/mL ([3]; 3.75 μg/mL) was “Lawn” and the “Number of Colonies” value [3, 16] was “Lawn (‘Lawn’ indicates too many colonies to accurately count (e.g., greater than 250 colonies on an agar plate))”. The CFU/mL ([3]; 7.5 μg/mL) was “Lawn”, the “Number of Colonies” value [3, 17] was “Lawn (‘Lawn’ indicates too many colonies to accurately count (e.g., greater than 250 colonies on an agar plate))” and the CFU/mL ([3]; 15 μg/mL) was 0 CFU/mL. For the same compound, the “Number of Colonies” value [3, 18] was 0, the CFU/mL ([3]; 30 μg/mL) was 0 CFU/mL and the “Number of Colonies” value [3, 19] was 0. For the same compound, the CFU/mL ([3]; 60 μg/mL) was 0 CFU/mL, the “Number of Colonies” value [3, 20] was 0 and the MBC [3, 21] was 15 mg/L. The “MIC of LAE Alone” value ([4]; alone) was 30 mg/L, the “MIC of LAE in Presence of CHG” value ([4]; in presence of CHG) was 7.5 mg/L and the “MIC of LAE Alone” value ([5]; alone) was 15 mg/L. The “MIC of LAE in Presence of CHG” value ([5]; in presence of CHG) was 3.75 mg/L, the “MIC of LAE Alone” value ([6]; alone) was 3.75 mg/L and the “MIC of LAE in Presence of CHG” value ([6]; in presence of CHG) was 1.875 mg/L. For the same compound, the “Average Growth Inhibition (%)” value ([7]; 0.46875 μg/mL) was 2%, the “Average Growth Inhibition (%)” value ([7]; 0.9375 μg/mL) was 2% and the “Average Growth Inhibition (%)” value ([7]; 1.875 μg/mL) was 2%. For the same compound, the “Average Growth Inhibition (%)” value ([7]; 3.75 μg/mL) was 4%, the “Average Growth Inhibition (%)” value ([7]; 7.5 μg/mL) was 5% and the “Average Growth Inhibition (%)” value ([7]; 15 μg/mL) was 2%. For the same compound, the “Average Growth Inhibition (%)” value ([7]; 30 μg/mL) was 100%, the “Average Growth Inhibition (%)” value ([7]; 60 μg/mL) was 99% and the MIC [7, 22] was 30 mg/L. The “Average Growth Inhibition (%)” value ([8]; 0.46875 μg/mL) was 7%, the “Average Growth Inhibition (%)” value ([8]; 0.9375 μg/mL) was -1% and the “Average Growth Inhibition (%)” value ([8]; 1.875 μg/mL) was -17%. For the same compound, the “Average Growth Inhibition (%)” value ([8]; 3.75 μg/mL) was 100%, the “Average Growth Inhibition (%)” value ([8]; 7.5 μg/mL) was 101% and the “Average Growth Inhibition (%)” value ([8]; 15 μg/mL) was 101%. The “Average Growth Inhibition (%)” value ([8]; 30 μg/mL) was 97%, the “Average Growth Inhibition (%)” value ([8]; 60 μg/mL) was 93% and the MIC [8, 22] was 3.75 mg/L. The “Average Growth Inhibition (%)” value ([9]; 0.46875 μg/mL) was 3%, the “Average Growth Inhibition (%)” value ([9]; 0.9375 μg/mL) was 6% and the “Average Growth Inhibition (%)” value ([9]; 1.875 μg/mL) was 5%. The “Average Growth Inhibition (%)” value ([9]; 3.75 μg/mL) was 4%, the “Average Growth Inhibition (%)” value ([9]; 7.5 μg/mL) was 4% and the “Average Growth Inhibition (%)” value ([9]; 15 μg/mL) was 100%. The “Average Growth Inhibition (%)” value ([9]; 30 μg/mL) was 100% and the “Average Growth Inhibition (%)” value ([9]; 60 μg/mL) was 99%.
